According to patent US6495591B1, “Fungal efflux pump inhibitors” (Essential Therapeutics, Inc., priority 1997, dated 2002):
≈ marks a conversion by molar mass, not a printed value. Like-named read-outs stand apart in the source and are kept apart here.

Columns and labels:
[1] = test system: C. albicans YEM-15 (CDR1 & CDR2 overexpressor); assay: microbe, parasite or virus in culture; type: cell-based; set-up: MIC Reduction Factor, fluconazole / MIC Reduction Factor, itraconazole / MIC Reduction Factor, ketoconazole / MIC Reduction Factor, terbinafine: unit not given beside the values; conditions: for MIC: Candida albicans
[2] = test system: S. cerevisiae YEM-37 overexpressing CDR2 (C. albicans); assay: microbe, parasite or virus in culture; type: cell-based; set-up: MIC Reduction Factor, fluconazole: unit not given beside the values; conditions: for MIC: Saccharomyces cerevisiae
[3] = test system: S. cerevisiae YEM-39 overexpressing CgCDR (C. glabrata); assay: microbe, parasite or virus in culture; type: cell-based; set-up: MIC Reduction Factor, fluconazole: unit not given beside the values; conditions: for MIC: Saccharomyces cerevisiae
[4] = test system: C. albicans clinical isolates (n = 33); assay: microbe, parasite or virus in culture; type: cell-based
C. lipolytica = assay: microbe, parasite or virus in culture; type: cell-based; conditions: strain 828B; MIC (80%) in YPD
[5] = test system: S. cerevisiae YEM-37 (CDR2 introduced); assay: microbe, parasite or virus in culture; type: cell-based; conditions: Saccharomyces cerevisiae, read-out: MIC Mb alone
[6] = test system: S. cerevisiae YEM-40 (CgCDR, MF, introduced); assay: microbe, parasite or virus in culture; type: cell-based; conditions: Saccharomyces cerevisiae, read-out: MIC Mb alone
[7] = test system: S. cerevisiae YEM-38 (FLU1 introduced); assay: microbe, parasite or virus in culture; type: cell-based; conditions: Saccharomyces cerevisiae, read-out: MIC Mb alone
[8] = test system: C. albicans YEM-30 (wild-type, no pump deleted); assay: microbe, parasite or virus in culture; type: cell-based
[9] = test system: C. albicans YEM-24 (CDR1, CDR2 deleted); assay: microbe, parasite or virus in culture; type: cell-based
[10] = test system: C. albicans YEM-21 (BEN deleted); assay: microbe, parasite or virus in culture; type: cell-based
[11] = test system: C. albicans YEM-29 (BEN, FLU1 deleted); assay: microbe, parasite or virus in culture; type: cell-based
[12] = test system: C. albicans YEM-14 (low level CDR1 expressor); assay: microbe, parasite or virus in culture; type: cell-based
[13] = test system: C. albicans YEM-12 (low level CDR1 expressor); assay: microbe, parasite or virus in culture; type: cell-based
[14] = test system: C. albicans YEM-13 (BEN overexpressor); assay: microbe, parasite or virus in culture; type: cell-based; conditions: Candida albicans, read-out: MIC Mb alone
[15] = test system: C. albicans YEM-15 (CDR1 and CDR2 overexpressor); assay: microbe, parasite or virus in culture; type: cell-based; conditions: Candida albicans, read-out: MIC Mb alone
[16] = test system: C. glabrata YEM-18 (low level CgBEN and CgCDR expression); assay: microbe, parasite or virus in culture; type: cell-based
[17] = test system: C. glabrata YEM-17 (CgCDR overexpressor); assay: microbe, parasite or virus in culture; type: cell-based
[18] = test system: mammalian P-glycoprotein multi-drug resistant pump; type: cell-based, mouse
Description: The inhibitory effect of milbemycin β1 against the mammalian P-glycoprotein multi-drug resistant pump was determined following the procedure described by Tsuruo et al (Cancer Res., 1981. 41:1967-1972) with slight modification. The cytotoxicity of antitumor agent, adriamycin, against adriamycin sensitive P388 cell line (mouse leukemia) and its adriamycin resistant subline line (P388/ADM) was measured in the presence of various concentrations of milbemycin β1. […] The assay is performed in serum-free media containing 20 μM of 2-mercaptoethanol. Chemosensitivity to adriamycin was determined […] based on the reduction of MTT (3-[4,5-dimethylthiazol-2-yl]-2,5-diphenyltetrazolium bromide) into blue formazan.

[19] = Cytotoxicity TC50 in K-562; type: cell-based; conditions: human, k-562 cells; compound alone
[20] = test system: C. glabrata YEM-19 (CgCDR overexpressor); type: cell-based
CDR1 efflux pump = CDR1 efflux pump (Candida albicans, UniProt P43071); assay: Follow-up evaluation of screening hit, efflux pump inhibition; conditions: follow-up evaluation of screen hit
Description: (§1) An exemplary screen uses C. albicans (e.g., ATCC10231) grown in YPD medium (medium described in “Guide to Yeast Genetics and Molecular Biology”, in Methods in Enzymolopy, vol. 194, pp.13, 1991,; Academic Press; Ed. C. Guthrie and G. Fink) at 30° C. […] Test and control cultures are inoculated with log-phase cells to provide approximately 10^3 CFU/ml. Cultures are incubated at 30° C. for 20-22 hrs. Cell concentration is determined by taking the OD600.

BenR pump = BenR pump (Candida albicans, UniProt P28873); assay: as above; conditions: follow-up evaluation of screen hit
Description: as §1

[21] = read-out: Terbinafine MIC in the presence of FEPImax
[22] = YEM-15, milbemycin α9 at FEPImax
[23] = YEM-37 (CDR2), milbemycin α9 at FEPImax
[24] = YEM-37, milbemycin α9 at FEPImax
[25] = YEM-39 (CgCDR), milbemycin α9 at FEPImax
[26] = YEM-39, milbemycin α9 at FEPImax
[27] = Candida albicans, read-out: MIC Mb alone
[28] = Nakaseomyces glabratus, read-out: MIC of milbemycin β1 (MB) alone

BenR pump, sequence (P28873 whole entry): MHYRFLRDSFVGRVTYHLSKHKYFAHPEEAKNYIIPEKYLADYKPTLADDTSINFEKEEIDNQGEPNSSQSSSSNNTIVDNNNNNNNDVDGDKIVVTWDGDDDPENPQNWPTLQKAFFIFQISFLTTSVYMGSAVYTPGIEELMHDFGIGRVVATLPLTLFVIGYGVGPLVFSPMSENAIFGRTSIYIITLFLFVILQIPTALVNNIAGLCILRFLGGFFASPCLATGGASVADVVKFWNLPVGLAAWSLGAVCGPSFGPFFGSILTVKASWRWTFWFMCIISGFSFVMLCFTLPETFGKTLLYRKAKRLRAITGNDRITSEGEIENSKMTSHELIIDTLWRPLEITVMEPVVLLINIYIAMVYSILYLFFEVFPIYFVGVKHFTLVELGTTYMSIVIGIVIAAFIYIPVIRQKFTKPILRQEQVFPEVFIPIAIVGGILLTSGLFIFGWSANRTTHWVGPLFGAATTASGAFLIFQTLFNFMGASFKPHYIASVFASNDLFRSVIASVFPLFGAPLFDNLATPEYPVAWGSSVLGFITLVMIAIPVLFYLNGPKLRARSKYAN
CDR1 efflux pump, sequence (P43071 whole entry): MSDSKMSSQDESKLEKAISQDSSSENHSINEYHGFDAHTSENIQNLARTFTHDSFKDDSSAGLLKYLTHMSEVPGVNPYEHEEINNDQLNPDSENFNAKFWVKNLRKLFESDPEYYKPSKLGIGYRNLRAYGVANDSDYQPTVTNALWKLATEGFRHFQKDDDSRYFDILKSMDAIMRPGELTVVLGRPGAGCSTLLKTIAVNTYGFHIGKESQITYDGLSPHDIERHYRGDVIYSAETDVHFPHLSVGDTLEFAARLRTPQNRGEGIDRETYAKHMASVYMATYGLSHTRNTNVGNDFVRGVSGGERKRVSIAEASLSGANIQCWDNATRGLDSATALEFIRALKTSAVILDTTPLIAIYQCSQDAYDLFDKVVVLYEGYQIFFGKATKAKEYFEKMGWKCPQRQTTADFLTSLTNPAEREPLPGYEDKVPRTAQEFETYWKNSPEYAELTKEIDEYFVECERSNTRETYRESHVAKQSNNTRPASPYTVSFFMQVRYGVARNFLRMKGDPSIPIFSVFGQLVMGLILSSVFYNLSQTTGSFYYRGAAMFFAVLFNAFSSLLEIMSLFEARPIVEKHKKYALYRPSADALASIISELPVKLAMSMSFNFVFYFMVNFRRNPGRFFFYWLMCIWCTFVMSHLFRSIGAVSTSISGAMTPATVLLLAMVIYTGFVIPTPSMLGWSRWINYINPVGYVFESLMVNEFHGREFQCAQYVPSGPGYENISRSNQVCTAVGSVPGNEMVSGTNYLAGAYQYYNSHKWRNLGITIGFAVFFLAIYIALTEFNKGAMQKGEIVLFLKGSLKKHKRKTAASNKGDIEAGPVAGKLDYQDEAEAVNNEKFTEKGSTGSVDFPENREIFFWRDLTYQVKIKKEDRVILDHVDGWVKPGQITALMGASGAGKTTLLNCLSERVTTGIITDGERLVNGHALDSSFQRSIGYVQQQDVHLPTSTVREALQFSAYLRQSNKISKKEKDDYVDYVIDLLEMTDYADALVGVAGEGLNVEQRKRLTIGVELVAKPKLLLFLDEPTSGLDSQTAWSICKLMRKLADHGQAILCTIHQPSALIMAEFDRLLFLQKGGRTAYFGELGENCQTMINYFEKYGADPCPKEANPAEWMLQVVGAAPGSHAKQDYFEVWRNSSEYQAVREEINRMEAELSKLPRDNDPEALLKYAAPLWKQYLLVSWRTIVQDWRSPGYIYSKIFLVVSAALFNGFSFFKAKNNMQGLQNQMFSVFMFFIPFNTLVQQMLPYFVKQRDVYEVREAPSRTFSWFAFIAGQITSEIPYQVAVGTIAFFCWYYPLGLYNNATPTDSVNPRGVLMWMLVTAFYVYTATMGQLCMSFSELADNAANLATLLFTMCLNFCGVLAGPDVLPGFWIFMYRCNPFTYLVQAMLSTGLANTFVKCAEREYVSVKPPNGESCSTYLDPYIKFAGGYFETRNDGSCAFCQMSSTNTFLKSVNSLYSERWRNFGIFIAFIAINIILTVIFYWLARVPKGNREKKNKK

SMILES: C/C1=C\C[C@@H]2C[C@@H](C[C@]3(CC[C@H](C)[C@@H](C)O3)O2)OC(=O)[C@@H]2C=C(COC(=O)c3ccc[nH]3)[C@@H](O)[C@H]3OC/C(=C\C=C\[C@H](C)C1)[C@]32O [Compound 11, Milbemycin α9]
- MIC ([1]; read-out: Milbemycin α9 MIC): > 64 µg/mL
- MIC [1, 21]: 0.125 µg/mL
- FEPImax (minimal milbemycin α9 conc. for maximum MIC reduction), fluconazole ([1]; YEM-15): 16 µg/mL
- FEPImax (minimal milbemycin α9 conc. for maximum MIC reduction), itraconazole ([1]; YEM-15): 1 µg/mL
- FEPImax (minimal milbemycin α9 conc. for maximum MIC reduction), ketoconazole ([1]; YEM-15): 4 µg/mL
- FEPImax (minimal milbemycin α9 conc. for maximum MIC reduction), terbinafine ([1]; YEM-15): 4 µg/mL
- Fluconazole MIC in the presence of FEPImax [1, 22]: 2 µg/mL
- Itraconazole MIC in the presence of FEPImax [1, 22]: 0.06 µg/mL
- Ketoconazole MIC in the presence of FEPImax [1, 22]: 0.015 µg/mL
- MIC Reduction Factor, fluconazole [1, 22]: 64
- MIC Reduction Factor, itraconazole [1, 22]: 8
- MIC Reduction Factor, ketoconazole [1, 22]: 64
- MIC Reduction Factor, terbinafine [1, 22]: 1024
- MIC ([2]; read-out: Milbemycin α9 MIC): > 64 µg/mL
- MIC [2, 21]: 0.5 µg/mL
- FEPImax (minimal milbemycin α9 conc. for maximum MIC reduction), fluconazole ([2]; YEM-37 (CDR2)): 1 µg/mL
- FEPImax (minimal milbemycin α9 conc. for maximum MIC reduction), terbinafine ([2]; YEM-37 (CDR2)): 4 µg/mL
- Pump inhibition (%), fluconazole [2, 23]: 100%
- Pump inhibition (%), terbinafine [2, 23]: 100%
- Fluconazole MIC in the presence of FEPImax [2, 24]: 0.5 µg/mL
- MIC Reduction Factor, fluconazole [2, 24]: 8
- MIC ([3]; read-out: Milbemycin α9 MIC): > 64 µg/mL
- MIC [3, 21]: 1 µg/mL
- FEPImax (minimal milbemycin α9 conc. for maximum MIC reduction), fluconazole ([3]; YEM-39 (CgCDR)): 2 µg/mL
- FEPImax (minimal milbemycin α9 conc. for maximum MIC reduction), terbinafine ([3]; YEM-39 (CgCDR)): 2 µg/mL
- Pump inhibition (%), fluconazole [3, 25]: 60%
- Pump inhibition (%), terbinafine [3, 25]: 66%
- Fluconazole MIC in the presence of FEPImax [3, 26]: 4 µg/mL
- MIC Reduction Factor, fluconazole [3, 26]: 16
- Inhibition of CgCDR efflux pump from C. glabrata ([3]; summary of Table 9, fluconazole and terbinafine): 60-65%
- Fluconazole MIC50, + milbemycin α9 [4]: <0.25 µg/mL
- Fluconazole MIC90, + milbemycin α9 [4]: <0.25 µg/mL
- Fluconazole MIC Range, + milbemycin α9 [4]: <0.25 to 1 µg/mL
- Reduction of fluconazole MIC90 by milbemycin α9 ([4]; C. albicans (n=33)): > 512 fold
- Fluconazole MIC, + milbemycin α9 (C. lipolytica): 8 µg/mL

SMILES: CO[C@H]1C[C@@]2(O)/C(CO)=C/C=C/[C@H](C)C/C(C)=C/C[C@@H]3C[C@@H](C[C@]4(CC[C@H](C)[C@@H](C)O4)O3)OC(=O)[C@@H]2C=C1C [Compound 6, Milbemycin β1]
- MIC [5]: 8 µg/mL (≈ 14.7 µM)
- MIC [6]: 8 µg/mL (≈ 14.7 µM)
- MIC [7]: 8 µg/mL (≈ 14.7 µM)
- MIC [8, 27]: 16 µg/mL (≈ 29.4 µM)
- MIC of fluconazole, Flu + Mb (2.5 μg/ml) ([8]; YEM-30, milbemycin β1 2.5 μg/ml): 0.125 µg/mL
- MIC [9, 27]: 16 µg/mL (≈ 29.4 µM)
- MIC of fluconazole, Flu + Mb (2.5 μg/ml) ([9]; YEM-24, CDR1, CDR2 deleted, milbemycin β1 2.5 μg/ml): 0.125 µg/mL
- MIC [10, 27]: 16 µg/mL (≈ 29.4 µM)
- MIC of fluconazole, Flu + Mb (2.5 μg/ml) ([10]; YEM-21, BEN deleted, milbemycin β1 2.5 μg/ml): 0.03 µg/mL
- MIC [11, 27]: 16 µg/mL (≈ 29.4 µM)
- MIC of fluconazole, Flu + Mb (2.5 μg/ml) ([11]; YEM-29, BEN, FLU1 deleted, milbemycin β1 2.5 μg/ml): 0.03 µg/mL
- MIC [12, 27]: 16 µg/mL (≈ 29.4 µM)
- MIC of fluconazole, Flu + Mb (2.5 μg/ml) ([12]; YEM-14, milbemycin β1 2.5 μg/ml): 0.125 µg/mL
- MIC [13, 27]: 32 µg/mL (≈ 58.7 µM)
- MIC of fluconazole, Flu + Mb (2.5 μg/ml) ([13]; YEM-12, milbemycin β1 2.5 μg/ml): 0.25 µg/mL
- MIC [14]: 32 µg/mL (≈ 58.7 µM)
- MIC [15]: 16 µg/mL (≈ 29.4 µM)
- MIC [16, 28]: > 64 µg/mL
- Fluconazole MIC with 2.5 μg/ml milbemycin β1 ([16]; YEM-18): 2 µg/mL
- Fluconazole MIC with 5 μg/ml milbemycin β1 ([16]; YEM-18): 2 µg/mL
- Fluconazole MIC with 10 μg/ml milbemycin β1 ([16]; YEM-18): 2 µg/mL
- Fluconazole MIC with […] milbemycin β1 ([16]; YEM-18): 2 µg/mL
- MIC [17, 28]: > 64 µg/mL
- Fluconazole MIC with 2.5 μg/ml milbemycin β1 ([17]; YEM-17): 4 µg/mL
- Fluconazole MIC with 5 μg/ml milbemycin β1 ([17]; YEM-17): 2 µg/mL
- Fluconazole MIC with 10 μg/ml milbemycin β1 ([17]; YEM-17): 2 µg/mL
- Fluconazole MIC with […] milbemycin β1 ([17]; YEM-17): 8 µg/mL
- Potency as inhibitor of the mammalian p-glycoprotein multi-drug resistant pump ([18]; compared with verapamil): potency similar to that of verapamil
- Ratio [P388/A]/[P388] ([18]; inhibitor 0.06 μg/ml): 220
- Ratio [P388/A]/[P388] ([18]; inhibitor 0.25 μg/ml): 75
- Ratio [P388/A]/[P388] ([18]; inhibitor 0.5 μg/ml): 32
- Ratio [P388/A]/[P388] ([18]; inhibitor 1 μg/ml): 23
- Ratio [P388/A]/[P388] ([18]; inhibitor 2 μg/ml): 4
- Ratio [P388/A]/[P388] ([18]; inhibitor 3.125 μg/ml): 5
- CC50 [19]: 8 µM
- Minimal concentration required to reduce the MIC of fluconazole by sixteen-fold [20]: 2.5 µg/mL
- Inhibition of the CDR1 efflux pump (CDR1 efflux pump): inhibited the CDR1 efflux pump
- Inhibition of the BenR pump (BenR pump): did not appreciably inhibit the BenR pump
